For one data set, the target named is T1, rhGAA (e.g., Myozyme®) (Homo sapiens, UniProt P10253).
T1 construct: purchased Genzyme Corp; host or cells: Chinese hamster ovary cell line
The data set is described as follows: rhGAA enzyme inactivation in citrate anti-coagulated whole blood at 37° C. (Examples 7, 8). It is filed as in vitro ADME. As for the experimental part:
Aliquots were collected at 0, 2, 4, 8 and 24 hrs and centrifuged to obtain plasma. These plasma samples were then diluted in potassium acetate buffer (pH 4.0) and assayed for GAA activity using the 4-methylumbeliferyl-α-glucose (4-MUG) fluorogenic substrate. The measured GAA activity for individual samples at each time point was normalized to the 0 hr and expressed as % of initial activity. Data from 4 independent experiments were analyzed to obtain the mean (and standard deviation) and plotted versus time to assess the loss of enzyme activity over this time course.
Aliquots were collected at 0, 3 and 6 hrs and centrifuged to obtain plasma. These plasma samples were then diluted in potassium acetate buffer (pH 4.0) and assayed for GAA activity using the 4-methylumbeliferyl-α-glucose (4-MUG) fluorogenic substrate. The measured GAA activity for individual samples at each time point was normalized to the 0 hr and expressed as % of initial activity.
Moreover, since Myozyme® has a long plasma half-life (reported to be more than 3 hrs), there is a high probability that an appreciable amount of the enzyme remains in the circulation many hours after the infusion that would also be prone to inactivation.
Based on human plasma PK data, these concentrations are readily obtainable in the clinic.

The conditions of data set [1]: rat, in vivo, po, 30 mg/kg.
Data set [2] has as its system cell lines derived from late-onset Pompe patients with the IVS 1 (−13 T>G) splicing defect. The data set can be described thus: GAA levels in cell lines derived from late-onset Pompe patients. The class given is cell-based, human. The following applies: alone and in combination with hrGAA.
In data set [3] the test system is GAA KO mice. The data set is described as follows: Myozyme® tissue uptake in GAA KO mice with and without oral 1-DNJ-HCl (Example 3). The class given is in vivo, mouse. The following applies: 10, 100, 1000 mg/kg oral 1-DNJ-HCl with 10 mg/kg Myozyme® IV weekly; up to 7 days post injection. As for the experimental part: Five groups of GAA KO mice were administered one of the following formulations: […]
(2) 10 mg/kg of Myozyme® IV once per week, for up to three weeks
Tissue homogenates were generated for analysis. Enzymatic activity as determined using a 4-MUG fluorogenic substrate assay.

The target in data set [4] is T2, recombinant human GAA (Myozyme®) (Homo sapiens, UniProt P10253).
T2 construct: purchased Genzyme Corp
The data set can be described thus: SYPRO Orange thermal stability assay (heat-induced denaturation). The class given is physicochemical. The following applies: for stability of Myozyme® (heat required to denature) on addition of the ASSC: pH 7.4, 100 μM 1-DNJ-HCl, vs Myozyme® alone. From the text: The thermal stability assay utilizes heat to induce protein denaturation, which is monitored using a SYPRO Orange dye that fluoresces upon binding to hydrophobic amino acids (which are not exposed in a folded protein).
FIG. 5 depicts the results of a thermal stability assay that utilizes heat to induce protein denaturation, which is monitored using a SYPRO Orange dye that fluoresces upon binding to hydrophobic amino acids (which are not exposed in a folded protein).
Denaturation is monitored using a SYPRO Orange dye that fluoresces upon binding to hydrophobic amino acids (which are not exposed in a folded protein).
The thermal stability was performed at pH 7.4 for two formulations, which corresponds to the pH of the ER.

In data set [5] the test system is GAA KO mice. The data set can be described thus: rhGAA activity in heart and diaphragm of GAA KO mouse (Example 6). The following applies: co-administered with 1-DNJ-HCl vs ERT monotherapy. It is filed as in vivo. As for the experimental part: Heart and Diaphragm tissue homogenates were harvested and rhGAA activity was measured using the fluorogenic substrate (4-MUG).

The target of data set [6] is T2, recombinant human GAA (Myozyme®). The data set is described as follows: Residual GAA enzyme activity in buffer at 37° C. (4-MU-α-glucose). It is filed as biochemical. The following applies: 50 μM 1-DNJ, plasma pH (7.4), 24 hours. The method, then:
GAA activity was evaluated to assess the ability of an ASSC of GAA to prolong the activity of the rhGAA over time. Myozyme® (45 nM) was incubated in pH 7.4 or pH 5.2 buffer with or without 50 μM 1-DNJ at 37° C. over 24 hours. Samples were assayed for GAA enzyme activity using 4-MU-α-glucose at 0, 3, 6 and 24 hours and the residual GAA activity was expressed as % of initial activity.
Residual GAA activity was determined for four formulations:
Activity was measured, based on the % of initial activity (t=0) over 24 hours. Samples were assayed for GAA enzyme activity based on the hydrolysis of the fluorogenic substrate 4-MU-α-glucose at 0, 3, 6 and 24 hours. The GAA activity was expressed as % of initial activity, i.e. residual activity.

Data set [7] in a line: Circulating rhGAA after subcutaneous Myozyme® with or without DNJ (FIG. 14). The class given is in vivo. The following applies: DNJ co-formulated with 20 mg/kg Myozyme® vs 20 mg/kg Myozyme® without DNJ.
Data set [8] can be described thus: Circulating half-life and quadriceps uptake of Myozyme® in rats, tail vein (Example 11). It is filed as in vivo, Sprague-Dawley rats. The following applies: 30 mg/kg DNJ with 10 mg/kg Myozyme® via tail vein. As for the experimental part: Sprague-Dawley rats were administered 10 mg/kg Myozyme® or 30 mg/kg DNJ mixed with 10 mg/kg Myozyme® via tail vein. GAA activity was measured in plasma and quadriceps tissue. Baseline GAA activity in quadriceps was subtracted (˜16 nmol/mg protein/hr) from the measured GAA following GAA or DNJ and GAA administration.

The target in data set [9] is T2, recombinant human GAA (Myozyme®). The data set is described as follows: SYPRO Orange protein folding monitored over 24 hours at 37° C. The following applies: 100 μM 1-DNJ-HCl, plasma pH. It is filed as physicochemical. As for the experimental part:
FIG. 2B depicts a parallel SYPRO Orange thermal stability experiment to determine if the loss of enzyme activity shown in FIG. 2A, particularly the loss of Myozyme® activity at ER pH (7.4), correlates with protein unfolding and denaturation.
In order to determine if loss of initial enzyme activity is correlated to failure to maintain a proper conformation, a SYPRO Orange thermal stability experiment was performed on the samples above as generally described in Example 1. […] Based on this experiment, the % of GAA folded was estimated and plotted in FIG. 2B.

Data set [10] in a line: Aggregation of 25 mg/mL Myozyme® (Example 10). It is filed as physicochemical. The following applies: 1 mM DNJ with 25 mg/mL Myozyme®; pH 7.4; 37° C.; 4 weeks; listed as DNJ. The method, then: Aggregation was assessed after a 4 week incubation period.
A liquid formulation comprising DNJ and GAA was prepared by dissolving DNJ in water to achieve a concentration of 10 mM DNJ. GAA was reconstituted in 1.8 ml water, and dialyzed overnight in phosphate buffered-saline (pH 7.4). […] of DNJ (10 mM) was then be added to 400 microliters of GAA, such that the GAA was at a concentration of 25 mg/ml.
25 mg/mL Myozyme® was incubated with or without 1 mM DNJ in phosphate-buffered saline at pH 7.4. Aggregation of Myozyme® was assessed after incubation for 4 weeks at 37° C.

“Also recorded” adds a separate entry of the source. Structures can show the parent of a compound that is named as a salt.

Take `OC[C@H]1NC[C@H](O)[C@@H](O)[C@@H]1O` [1-DNJ-HCl, 1-deoxynojirimycin hydrochloride]: the “loss of rhGAA activity in whole blood” value at rhGAA (e.g., Myozyme®) (2.5 μM 1-DNJ-HCl, 6-hr time course) is listed as around 20%. Besides, the “effect on rhGAA enzyme inactivation in whole blood” value on rhGAA (e.g., Myozyme®) (50 μM 1-DNJ-HCl, Myozyme® 0.5 μM, up to 24 hrs, hydrochloride) was “stabilized rhGAA and prevented enzyme inactivation; also recorded: prevents rhGAA enzyme inactivation”. The “stabilizing rhGAA in whole blood, concentration comparison” value on rhGAA (e.g., Myozyme®) (50 and 100 μM 1-DNJ-HCl, 6 hrs) is “best for stabilizing rhGAA and preventing enzyme inactivation”. The “increase of plasma half-life of rhGAA” value in data set [1] turned out to be 2 fold. Moreover, the GAA levels entry in [2] was “increased GAA levels”. Also, in the data set with GAA KO mice [3], the “Myozyme® tissue uptake (as a measure of GAA activity), effect of coadministration” value is listed as “dose-dependent increase in Myozyme® uptake”. Also, the “GAA thermostability (GAA's melting temperature)” value in data set [4] (1, 10, 100 μM 1-DNJ-HCl, dose-dependent) is recorded as “increases GAA thermostability”. In data set [4] (hydrochloride), the “stability of Myozyme® (heat required to denature) on addition of the ASSC” value is “required significantly more heat to denature”. Also, in the data set on GAA KO mice [5], the “rhGAA uptake in the heart and diaphragm” value is recorded as “increased”.

Consider `OC[C@H]1NC[C@H](O)[C@@H](O)[C@@H]1O` [1-DNJ, 1-deoxynojirimycin], for which the “effect on loss of GAA enzyme activity” value in data set [6] was “ameliorates the loss of GAA enzyme activity”. Besides, the “circulating levels of rhGAA” value in data set [7] is “increased the circulating levels of rhGAA”. For the same molecule, in [8], the “tissue uptake of Myozyme® in quadriceps” value was “increased”. Also, the “stability of Myozyme® (heat required to denature) on addition of the ASSC” value in data set [4] is recorded as “significantly increased”. Moreover, the “effect on GAA denaturation and loss of enzyme activity” value in data set [9] was “can prevent GAA denaturation and loss of enzyme activity”. Further, in [10], the “aggregation of Myozyme®” value is recorded as “reduces aggregation”.
